Data on 1 compound can be found in patent US10342804B2, “Steroid compound for use in the treatment of hepatic encephalopathy” (Umecrine Cognition AB, priority 2014, dated 2019).

Each structure is given as a SMILES string.

In assay [1] the target is T1, human α1β2γ2L GABAA receptors (Homo sapiens, UniProt P14867+P47870).
T1 construct: expressed in transfected cells; host or cells: HEK-293, permanently transfected
Kind of assay: Whole-cell voltage-clamp electrophysiology, HEK-293 cells expressing α1β2γ2L GABAA receptors. Type of assay: cell-based. As to conditions: for GAMSA effect: α1β2γ2L, 1 μM GAMSA, 30 μM GABA, AUC. The procedure: (§1) For electrophysiology measurements the Dynaflow® system with the Resolve chip was used (Cellectricon, Göteborg, Sweden). HEK-293 cells were permanently transfected with vectors including the human CMV promoter for constitutive expression of the human α5, β3, and γ2L GABAA receptor subunits (α5β3γ2L) or the human α1, β2, and γ2L GABAA receptor subunits (α1β2γ2L). The cell lines used were selected for good reactivity to GABA and to THDOC. Before measurements cells were incubated for 15 min at 37° C. in 95% air+5% CO2 in extracellular solution (EC) containing the following: 137 mM NaCl, 5.0 mM KCl, 1.0 mM CaCl2, 1.2 mM MgCl2, 10 mM HEPES, and 10 mM glucose, 0.1% DMSO pH 7.4. Thereafter, detached cells were added to the EC solution in the Dynaflow chip bath.
(§2) Whole-cell voltage-clamp recordings were made at room temperature (21-23° C., −17 mV with compensation for liquid junction potential as in Haage et al., 2002; Neher, 1992). Command pulses were generate and data collected by PClamp 9.0 software, DigiData 1322A converter, and AxonPatch 200B (Axon Instruments, Foster City, Calif.). Patch electrodes (2-6 MΩ) were filled with intracellular solution (IC) including: 140 mM Cs-gluconate, 3.0 mM NaCl, 1.2 mM MgCl2, 10 mM HEPES, 1.0 mM EGTA, 2 mM Mg-ATP, 0.1% DMSO, pH 7.2.
(§3) THDOC and 3α-ethynyl-3β-hydroxyandrostan-17-one oxime were dissolved in dimethyl sulfoxide (DMSO) and thereafter diluted with EC solution to include 0.1% DMSO.
(§4) Different protocols were used for different electrophysiology measurements. As α1β2γ2L-GABAA receptors in vivo are present within the synapse a condition resembling that situation, a short application (40 ms) of a high GABA concentration (30 μM), was used. Contrary, α5β3γ2L-GABAA receptors are present extrasynaptically, thus the conditions used were long exposures (6 s) to a low GABA concentration (0.3 μM). The EC75 concentration of THDOC was used, i.e. 100 nM with studies of α1β2γ2L and 200 nM when α5β3γ2L expressing cells were evaluated. With both cell types a pre-exposure with THDOC or THDOC plus 3α-ethynyl-3β-hydroxyandrostan-17-one oxime was used before application of GABA.
(§5) Steroid effects in presence of GABA were normalized to controls in order to avoid the effects of inter- and intracellular variation in the measured parameters, each cell was used as its own control and the area under the curve (AUC) was analyzed.

The subject of assay [2] is hyperammonemic rats. Kind of assay: Radial maze test, hyperammonemic rats (Example 10). Type of assay: in vivo, rat. As for the experimental part:
(§6) Male Wistar rats (140-160 g) were made hyperammonemic by feeding them a diet containing ammonium acetate (30% by weight) (Felipo et al, European Journal of Biochemistry, 1988, 176, 567-571).
(§7) 3α-ethynyl-3β-hydroxyandrostan-17-one oxime in sesame oil was administered by subcutaneous injections in the back of the rats, once daily. Two different sets of experiments were performed in hyperammonemic rats. In the first set four groups of rats were used: 1) control rats injected with vehicle; 2) hyperammonemic rats injected with vehicle; 3) control rats injected with 20 mg/Kg of 3α-ethynyl-3β-hydroxyandrostan-17-one oxime and 4) hyperammonemic rats injected with 20 mg/Kg of 3α-ethynyl-3β-hydroxyandrostan-17-one oxime.
(§8) In the second set of experiments five groups of rats were used: 1) control rats injected with vehicle; 2) hyperammonemiac rats injected with vehicle and 3-5) hyperammonemic rats injected with 3, 10 or 20 mg/Kg of 3α-ethynyl-3β-hydroxyandrostan-17-one oxime. In each experiment 6-8 rats per group were used.
The apparatus was composed of a central area that gave access to eight equally-sized arms. The arms were 70 cm long and 10 cm wide and the central area was 30 cm in diameter. […] Rats were allowed to explore the maze for 10 minutes on two consecutive days in the presence of distal cues to adapt to the maze. Training in the radial maze was composed of three trials per day on six consecutive days. The task involved locating four pellets, each placed at the end of a different arm according to a random configuration as described by Hernandez-Rabaza et al. (Addiction Biology, 2010, 15, 413-423). The number of working memory errors (visits to arms already visited in the same trial) were recorded and expressed as working errors.

The subject of assay [3] is hyperammonemic rats. Briefly: Morris water maze memory test, hyperammonemic rats (Example 9). Type of assay: in vivo, rat. As for the experimental part:
as §6, §7, §8
The test was carried out as described by Monfort et al. (European Journal of Neuroscience, 2007, 25, 2103-2111) using a circular pool (160 cm diameter, 40 cm height) arbitrarily divided into four quadrants. After pre-training, the rats were trained to learn the fixed location of the invisible platform over 3 days. Training involved placing the rat into the pool facing the wall in one of the three quadrants lacking the platform. A different starting point was randomly used on each trial. Training consisted of three swims per day. Each animal was allowed a maximum of 120 seconds to find the platform and was left for 20 seconds on the platform. […] The time needed to find the hidden platform was recorded manually and used as a measure of learning of the task.
Spatial memory was assessed 24 hours later by removing the platform and measuring the time spent by the rat in the quadrant where the platform was.

Another assay deals with PCS rats. Briefly: Radial maze test, PCS rats (Example 10). It counts as in vivo, rat. The procedure:
Male Wistar rats (220-240 g) were anesthetized with isoflurane, and an end-to side porta-caval anastomosis was performed as described by Lee and Fisher (Surgery, 1961, 50, 668-672).
Rats that were subjected to the porta-caval anastomosis procedure are herein referred to as “PCS rats”.
as §7
For the experiments using PCS rats, the following groups of rats were used: 1) Sham rats injected with vehicle; 2) PCS rats injected with vehicle; 3-4) PCS rats injected with 0.7 or 2.5 mg/Kg of 3α-ethynyl-3β-hydroxyandrostan-17-one oxime. […]
The apparatus was composed of a central area that gave access to eight equally-sized arms. […] The number of working memory errors (visits to arms already visited in the same trial) were recorded and expressed as working errors.

The target in assay [4] is T2, human α5β3γ2L GABAA receptors (Homo sapiens, UniProt P28472+P31644).
T2 construct: expressed in transfected cells; host or cells: HEK-293, permanently transfected
T2 sequence (P31644 32-462): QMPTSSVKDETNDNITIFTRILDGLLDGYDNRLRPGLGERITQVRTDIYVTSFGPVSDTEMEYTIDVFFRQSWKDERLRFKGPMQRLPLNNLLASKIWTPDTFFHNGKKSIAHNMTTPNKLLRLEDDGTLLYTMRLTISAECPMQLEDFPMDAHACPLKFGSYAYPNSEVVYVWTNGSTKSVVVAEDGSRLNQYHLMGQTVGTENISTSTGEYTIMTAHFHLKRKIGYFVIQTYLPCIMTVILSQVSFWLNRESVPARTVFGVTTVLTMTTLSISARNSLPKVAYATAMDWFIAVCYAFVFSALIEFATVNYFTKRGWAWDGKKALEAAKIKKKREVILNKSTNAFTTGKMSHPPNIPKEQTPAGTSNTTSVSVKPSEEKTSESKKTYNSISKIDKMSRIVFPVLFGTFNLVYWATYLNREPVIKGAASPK
T2 sequence (P28472 26-473): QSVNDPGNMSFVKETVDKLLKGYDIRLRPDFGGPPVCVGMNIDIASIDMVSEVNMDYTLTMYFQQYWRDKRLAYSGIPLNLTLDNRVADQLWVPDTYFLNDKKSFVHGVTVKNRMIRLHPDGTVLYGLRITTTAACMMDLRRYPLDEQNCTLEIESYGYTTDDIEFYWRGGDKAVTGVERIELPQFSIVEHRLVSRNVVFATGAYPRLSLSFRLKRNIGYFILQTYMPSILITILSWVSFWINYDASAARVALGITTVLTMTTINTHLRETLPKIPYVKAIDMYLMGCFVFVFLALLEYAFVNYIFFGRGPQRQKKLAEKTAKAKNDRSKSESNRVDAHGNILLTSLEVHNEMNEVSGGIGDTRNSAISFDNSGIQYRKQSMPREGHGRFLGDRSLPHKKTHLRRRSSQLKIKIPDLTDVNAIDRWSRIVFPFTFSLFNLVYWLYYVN
T2 sequence (P18507 40-475 partner): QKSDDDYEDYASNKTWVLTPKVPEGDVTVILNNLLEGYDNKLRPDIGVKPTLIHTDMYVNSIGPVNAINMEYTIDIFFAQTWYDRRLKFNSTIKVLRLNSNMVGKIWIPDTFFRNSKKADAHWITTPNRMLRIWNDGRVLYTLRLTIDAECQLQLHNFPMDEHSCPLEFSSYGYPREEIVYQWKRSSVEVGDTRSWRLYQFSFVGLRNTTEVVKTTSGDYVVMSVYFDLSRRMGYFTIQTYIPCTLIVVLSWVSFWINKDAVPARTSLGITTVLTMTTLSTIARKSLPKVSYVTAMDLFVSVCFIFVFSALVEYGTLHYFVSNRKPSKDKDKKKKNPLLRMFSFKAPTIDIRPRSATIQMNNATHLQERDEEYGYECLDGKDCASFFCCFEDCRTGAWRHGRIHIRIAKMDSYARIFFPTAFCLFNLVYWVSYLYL
Briefly: Whole-cell voltage-clamp electrophysiology, HEK-293 cells expressing α5β3γ2L GABAA receptors. Type of assay: cell-based. The note with it: for GAMSA effect: α5β3γ2L, 1 μM GAMSA, 0.3 μM GABA, AUC. As for the experimental part: as §1, §2, §3, §4, §5

Setting [5] is: HEK293, read-out: Inhibition of the THDOC enhancement of GABA.
[6] abbreviates: no THDOC (GABA sole activator), listed as GAMSA.

T1 sequence (P14867 28-456): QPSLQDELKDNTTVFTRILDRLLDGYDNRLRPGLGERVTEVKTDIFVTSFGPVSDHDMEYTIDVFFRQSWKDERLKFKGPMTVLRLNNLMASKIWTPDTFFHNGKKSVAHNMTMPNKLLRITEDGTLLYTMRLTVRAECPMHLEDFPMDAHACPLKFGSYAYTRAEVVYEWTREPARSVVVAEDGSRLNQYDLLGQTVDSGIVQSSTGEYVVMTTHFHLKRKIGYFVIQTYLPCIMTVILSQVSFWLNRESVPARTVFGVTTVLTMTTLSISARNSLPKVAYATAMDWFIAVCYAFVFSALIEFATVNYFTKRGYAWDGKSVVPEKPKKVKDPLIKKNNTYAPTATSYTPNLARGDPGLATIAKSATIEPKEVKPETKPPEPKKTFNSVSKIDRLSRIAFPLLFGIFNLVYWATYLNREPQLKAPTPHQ
T1 sequence (P47870 25-512 limits assumed): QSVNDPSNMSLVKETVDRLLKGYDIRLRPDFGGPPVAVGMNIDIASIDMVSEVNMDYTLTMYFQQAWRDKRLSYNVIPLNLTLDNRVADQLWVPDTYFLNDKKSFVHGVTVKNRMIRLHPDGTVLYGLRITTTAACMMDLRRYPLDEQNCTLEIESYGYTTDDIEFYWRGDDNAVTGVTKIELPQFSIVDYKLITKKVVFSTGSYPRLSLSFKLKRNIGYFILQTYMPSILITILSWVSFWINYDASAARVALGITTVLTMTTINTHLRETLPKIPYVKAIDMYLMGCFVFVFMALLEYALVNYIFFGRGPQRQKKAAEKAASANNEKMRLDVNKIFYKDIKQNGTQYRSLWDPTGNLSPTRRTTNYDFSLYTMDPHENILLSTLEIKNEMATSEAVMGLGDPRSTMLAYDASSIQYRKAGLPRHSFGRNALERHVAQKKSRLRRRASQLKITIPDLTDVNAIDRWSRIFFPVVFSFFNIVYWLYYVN
T1 sequence (P18507 40-475 partner): as the sequence (P18507 40-475 partner) above

The inhibition is the change of the read-out against control, counted positive when it falls. As to `C#C[C@]1(O)CC[C@@]2(C)C(CC[C@@H]3[C@@H]2CC[C@]2(C)/C(=N\O)CC[C@@H]32)C1` (stereo partly drawn) [3α-ethynyl-3β-hydroxyandrostan-17-one oxime], the values for the inhibition at 1 µM in assay [1] (setting [5]) and in assay [4] (setting [5]) were 29 ± 4.7% and 49 ± 4.7%, respectively. For the same compound, the GAMSA effect in assay [1] (100 nM THDOC) is given as −29 ± 4.7%; in assay [1] (no THDOC (GABA sole activator)) it was −3.1±1.7%; in assay [1] (setting [6]), −3.1 ± 1.7%; in assay [4] (200 nM THDOC), −49 ± 4.7%; in assay [4] (no THDOC (GABA sole activator)) it was −3.8±1.5%; in assay [4] (setting [6]), −3.8 ± 1.5%. For the same compound, the “Number of working errors in days 1-2, radial maze” value in the assay on hyperammonemic rats [2] (3 mg/kg) is given as 6.5±2.8 errors; with hyperammonemic rats [2] (10 mg/kg), 8.8±1.9 errors; in the assay with hyperammonemic rats [2] (20 mg/kg), 12±2 errors; in the assay on PCS rats (0.7 mg/Kg), 23±2 errors; with PCS rats (2.5 mg/Kg), 11±1 errors. Further, the “Percentage of time spent in the correct quadrant, Morris water maze memory test” value is given as 41±4% with hyperammonemic rats [3] (3 mg/kg), 42±5% with hyperammonemic rats [3] (10 mg/kg) and 38±3% with hyperammonemic rats [3] (20 mg/kg).
